# Legend:
# [1] = system: Enteromorpha spores; assay: inhibitory activity test against the mobility of Enteromorpha spores (Sargassum confusum fractions, Tables 5-8); assay type: cell-based
# [2] = system: Aspergillus niger; assay: minimum inhibitory concentration (MIC) by two-fold serial dilution in nutrient broth; assay type: cell-based; details: 30° C., 48 hours
# Description: (§1) A liquid medium obtained by diluting PAGS by two-fold serial dilution was placed on a 96-multiwell plate and inoculated with 10^4 cfu/ml of microorganisms. […] The liquid medium used in the test was a nutrient broth (Difco).
# [3] = system: Staphylococcus aureus; assay: as above; assay type: cell-based; details: 30° C., 48 hours
# Description: as §1
# [4] = system: mice; assay: safety test, single administration to mice, observed for 7 days; assay type: in vivo, mouse; details: 10 mg/kg, 10 mice per group
# Experimental: Each of hexadecane, octadecane, eicosane, 1-eicosanol, 1-pentadecanol, dibutyl phthalate, dioctyl phthalate, diisononyl phthalate, dicyclohexyl phthalate, and 6-formyl-3,4-dehydro-2,8-dimethyl-2-(3′,6′-dienyl-8′-hydroxy-4′-methylnonane)-2H-1-benzopyrane is dissolved in dimethylsulfoxide (DMSO) and diluted with water.
# [5] = system: spores of Ulva pertusa; assay: inhibitory effect test against the mobility of the spores of Ulva pertusa (Example 2 fractions); assay type: cell-based
# Experimental: The effects of the fractions I-VI on the inhibition of attachment of fouling organisms were tested on Ulva pertusa, one of typical fouling algae. Ulva pertusa was collected in Kyongpodae, Kangnung-city, Kangwon-Do, Korea. The collected seaweed was transported to a laboratory in which only Ulva pertusa was screened. In order to remove fouling organisms, the screened algae were treated three times with supersonic waves for 1 minute for each time, and then washed clean with sterilized seawater. The washed algae were simply sterilized by immersion in a mixed solution of 1% betadine and 2% trition X-100 for 1 minute, followed by semi-drying. The semi-dried Ulva pertusa was added to sterilized seawater and placed in a 80 μmol m^−2s^−, 20° C. incubator to induce the release of spores.
# 10 μl of dimethyl sulfoxide (DMSO) was placed in a prepared tube, to which the seawater having spores released therein was then added. […] Before inoculation with each fraction at each dilution concentration, the movement of spores in the seawater was examined and the result was used as a comparison with a control group.
# [6] = oral toxicity of methyl palmitate in mice; details: mouse, in vivo, administered orally to mice
# [7] = system: eyes of rabbits; details: rabbit, in vivo
# [8] = system: human body; details: in vivo
# [9] = fish toxicity against water; details: Blugil fish (a kind of trout), in vivo, other: exposure in water
# Experimental: The physical properties of methyl palmitate are as follows: a melting point of 32-34° C., a boiling point of 163-164° C., and a density of 0.852. […] Blugil fish which is a kind of trout was tested for toxicity against water, the result was as follows: LC50=1000 ml/l.
# [10] = in vivo
# Experimental: Methyl stearate is an opaque white-colored crystal and has the following physical properties: a melting point of 40-42° C., and a boiling point of 181-182° C.
# [11] = ratio 1:0 (not explained; test of PAGS)
# [12] = ratio 3:1 (not explained; test of PAGS)
compound,measurement,setting,value
"6-formyl-3,4-dehydro-2,8-dimethyl-2-(3′,6′-dienyl-8′-hydroxy-4′-methylnonane)-2H-1-benzopyrane",Activity (inhibition of the mobility of spores),[1]; 125 μg/ml,++++ (more than 95% inhibition of the mobility of spores)
same,Activity (inhibition of the mobility of spores),[1]; 250 μg/ml,++++ (more than 95% inhibition of the mobility of spores)
same,Activity (inhibition of the mobility of spores),[1]; 500 μg/ml,++++ (more than 95% inhibition of the mobility of spores)
same,Activity (inhibition of the mobility of spores),"[1]; 1,000 μg/ml",++++ (more than 95% inhibition of the mobility of spores)
same,Activity (inhibition of the mobility of spores),"[1]; 2,000 μg/ml",++++ (more than 95% inhibition of the mobility of spores)
same,Activity (inhibition of the mobility of spores),"[1]; 4,000 μg/ml",++++ (more than 95% inhibition of the mobility of spores)
same,MIC Aspergillus niger 1:0,[2]; [11],10
same,MIC Aspergillus niger 3:1,[2]; [12],2
same,MIC Staphylococcus aureus 1:0,[3]; [11],4
same,MIC Staphylococcus aureus 3:1,[3]; [12],1
same,death of the mice,[4],no death
"CCCCCCCCCCCCCCCCCCCC (single isomer, unassigned) [eicosane]",death of the mice,[4],no death
CCCCCCCCCCCCCCCO [1-pentadecanol],death of the mice,[4],no death
CCCCCCCCCCCCCCCCCCCC [B],Mobility inhibitory activity,[5]; 125 μg/ml,++++ (more than 95% inhibition of the mobility of spores)
same,Mobility inhibitory activity,[5]; 250 μg/ml,++++ (more than 95% inhibition of the mobility of spores)
same,Mobility inhibitory activity,[5]; 500 μg/ml,++++ (more than 95% inhibition of the mobility of spores)
same,Mobility inhibitory activity,"[5]; 1,000 μg/ml",++++ (more than 95% inhibition of the mobility of spores)
same,Mobility inhibitory activity,"[5]; 2,000 μg/ml",++++ (more than 95% inhibition of the mobility of spores)
same,Mobility inhibitory activity,"[5]; 4,000 μg/ml",++++ (more than 95% inhibition of the mobility of spores)
CCCCCCCCCCCCCCCCCCCCO [C],Mobility inhibitory activity,[5]; 125 μg/ml,++++ (more than 95% inhibition of the mobility of spores)
same,Mobility inhibitory activity,[5]; 250 μg/ml,++++ (more than 95% inhibition of the mobility of spores)
same,Mobility inhibitory activity,[5]; 500 μg/ml,++++ (more than 95% inhibition of the mobility of spores)
same,Mobility inhibitory activity,"[5]; 1,000 μg/ml",++++ (more than 95% inhibition of the mobility of spores)
same,Mobility inhibitory activity,"[5]; 2,000 μg/ml",++++ (more than 95% inhibition of the mobility of spores)
same,Mobility inhibitory activity,"[5]; 4,000 μg/ml",++++ (more than 95% inhibition of the mobility of spores)
CCCCCCCCCCCCCCCO [D],Mobility inhibitory activity,[5]; 125 μg/ml,++++ (more than 95% inhibition of the mobility of spores)
same,Mobility inhibitory activity,[5]; 250 μg/ml,++++ (more than 95% inhibition of the mobility of spores)
same,Mobility inhibitory activity,[5]; 500 μg/ml,++++ (more than 95% inhibition of the mobility of spores)
same,Mobility inhibitory activity,"[5]; 1,000 μg/ml",++++ (more than 95% inhibition of the mobility of spores)
same,Mobility inhibitory activity,"[5]; 2,000 μg/ml",++++ (more than 95% inhibition of the mobility of spores)
same,Mobility inhibitory activity,"[5]; 4,000 μg/ml",++++ (more than 95% inhibition of the mobility of spores)
CCCCOC(=O)c1ccccc1C(=O)OCCCC [E],Mobility inhibitory activity,[5]; 125 μg/ml,++++ (more than 95% inhibition of the mobility of spores)
same,Mobility inhibitory activity,[5]; 250 μg/ml,++++ (more than 95% inhibition of the mobility of spores)
same,Mobility inhibitory activity,[5]; 500 μg/ml,++++ (more than 95% inhibition of the mobility of spores)
same,Mobility inhibitory activity,"[5]; 1,000 μg/ml",++++ (more than 95% inhibition of the mobility of spores)
same,Mobility inhibitory activity,"[5]; 2,000 μg/ml",++++ (more than 95% inhibition of the mobility of spores)
same,Mobility inhibitory activity,"[5]; 4,000 μg/ml",++++ (more than 95% inhibition of the mobility of spores)
"CCCCCCCCCCCCCCCCCCCCO [Example 1-eicosanol, 1-eicosanol]",death of the mice,[4],no death
CCCCCCCCOC(=O)c1ccccc1C(=O)OCCCCCCCC [F],Mobility inhibitory activity,[5]; 125 μg/ml,++++ (more than 95% inhibition of the mobility of spores)
same,Mobility inhibitory activity,[5]; 250 μg/ml,++++ (more than 95% inhibition of the mobility of spores)
same,Mobility inhibitory activity,[5]; 500 μg/ml,++++ (more than 95% inhibition of the mobility of spores)
same,Mobility inhibitory activity,"[5]; 1,000 μg/ml",++++ (more than 95% inhibition of the mobility of spores)
same,Mobility inhibitory activity,"[5]; 2,000 μg/ml",++++ (more than 95% inhibition of the mobility of spores)
same,Mobility inhibitory activity,"[5]; 4,000 μg/ml",++++ (more than 95% inhibition of the mobility of spores)
CC(C)CCCCCCOC(=O)c1ccccc1C(=O)OCCCCCCC(C)C [G],Mobility inhibitory activity,[5]; 125 μg/ml,++++ (more than 95% inhibition of the mobility of spores)
same,Mobility inhibitory activity,[5]; 250 μg/ml,++++ (more than 95% inhibition of the mobility of spores)
same,Mobility inhibitory activity,[5]; 500 μg/ml,++++ (more than 95% inhibition of the mobility of spores)
same,Mobility inhibitory activity,"[5]; 1,000 μg/ml",++++ (more than 95% inhibition of the mobility of spores)
same,Mobility inhibitory activity,"[5]; 2,000 μg/ml",++++ (more than 95% inhibition of the mobility of spores)
same,Mobility inhibitory activity,"[5]; 4,000 μg/ml",++++ (more than 95% inhibition of the mobility of spores)
O=C(OC1CCCCC1)c1ccccc1C(=O)OC1CCCCC1 [H],Mobility inhibitory activity,[5]; 125 μg/ml,++++ (more than 95% inhibition of the mobility of spores)
same,Mobility inhibitory activity,[5]; 250 μg/ml,++++ (more than 95% inhibition of the mobility of spores)
same,Mobility inhibitory activity,[5]; 500 μg/ml,++++ (more than 95% inhibition of the mobility of spores)
same,Mobility inhibitory activity,"[5]; 1,000 μg/ml",++++ (more than 95% inhibition of the mobility of spores)
same,Mobility inhibitory activity,"[5]; 2,000 μg/ml",++++ (more than 95% inhibition of the mobility of spores)
same,Mobility inhibitory activity,"[5]; 4,000 μg/ml",++++ (more than 95% inhibition of the mobility of spores)
CCCCOC(=O)c1ccccc1C(=O)OCCCC [dibutyl phthalate],death of the mice,[4],no death
O=C(OC1CCCCC1)c1ccccc1C(=O)OC1CCCCC1 [dicyclohexyl phthalate],death of the mice,[4],no death
CC(C)CCCCCCOC(=O)c1ccccc1C(=O)OCCCCCCC(C)C [diisononyl phthalate],death of the mice,[4],no death
CCCCCCCCOC(=O)c1ccccc1C(=O)OCCCCCCCC [dioctyl phthalate],death of the mice,[4],no death
CCCCCCCCCCCCCCCC [hexadecane],death of the mice,[4],no death
CCCCCCCCCCCCCCCC(=O)OC [methyl palmitate],LD50,[6],> 20000 mg/kg
same,stimulus to eyes,[7],only a transient stimulus phenomenon occurred
same,stimulus to skin,[8],only a very mild stimulus remained
same,LC50,[9],1000 µg/mL
CCCCCCCCCCCCCCCCCC(=O)OC [methyl stearate],LD50,"[10]; in vivo, species and route not given",> 17200 mg/kg
same,stimulus,"[10]; suction, intake, epidermal absorption",gives no stimulus
CCCCCCCCCCCCCCCCCC [octadecane],death of the mice,[4],no death
